Earlier results, collected in patent US10253371B2, “Method of treating leukemia based on gene expression of clock genes” (National Guard Health Affairs, priority 2016, dated 2019).

Tests used:
Bcr-Abl tyrosine kinase = details: more potent than imatinib
Bcr-Abl expressing cells = details: more potent than imatinib

Cc1cn(-c2cc(NC(=O)c3ccc(C)c(Nc4nccc(-c5cccnc5)n4)c3)cc(C(F)(F)F)c2)cn1 [Nilotinib]
potency relative to imatinib in inhibiting Bcr-Abl tyrosine kinase activity (Bcr-Abl tyrosine kinase): 10-30 fold
potency relative to imatinib in inhibiting proliferation of Bcr-Abl expressing cells (Bcr-Abl expressing cells): 10-30 fold
